Experimental data: patent US10357491B2, “Method of treating a brain tumor” (BeyondSpring Pharmaceuticals, Inc., priority 2015, dated 2019)

Assays:
[1] = system: PDGF-induced gliomas that expressed G12D mutant KRAS; assay: Survival of mice with PDGF-induced gliomas expressing G12D mutant KRAS treated with Plinabulin; assay type: in vivo; settings: Plinabulin 7.5 mg/kg i.p. twice per week for 10 weeks; control: Plinabulin diluent only; p=0.001
From the text: Mice with PDGF-induced gliomas using RCAS/tv-a were generated. The mice were transgenic for expression of the RCAS receptor (tv-a) from the nestin promoter and having a background of ink4a/arf−/− and lox-stop-lox luciferase, were infected with RCAS-PDGF, or the combination of RCAS-PDGF and RCAS-KRAS that expressed G12D mutant KRAS. The resultant tumors occurred within the first 4-5 weeks in this background for PDGF alone, and about a week shorter for the tumors arising from the combination of PDGF and RCAS. The tumors had the histological characteristics of GBM and were identified by symptoms of lethargy and poor grooming, MRI scans using a T2 weighted sequence, or bioluminescence imaging with an IVIS system. For radiation therapy, mice were treated with 10Gy per day cranially for a single dose.
Plinabulin was tested on mice with PDGF-induced gliomas that expressed G12D mutant KRAS. 4-6 week old nestin-tv-a/ink4a-arf−/− mice were anesthetized with Isoflurane and injected with Df-1 cells transfected RCAS-PDGF-B-HA, RCAS-KRAS. Mice were injected with one microliter of a 1:1 mixture of 2×10^5 RCAS-PDGF-B-HA/RCAS-KRAS using a stereotactic frame via a 26-gauge needle attached to a Hamilton syringe. […] The mice were monitored for lethargy, hunched posture, appetite loss, outward signs of tumor growth, agitation, weight-loss and overall failure to thrive. […]

[2] = system: PDGF-induced gliomas that expressed G12D mutant KRAS; assay: Survival of mice with PDGF-induced gliomas expressing G12D mutant KRAS treated with Plinabulin plus TMZ plus radiation; assay type: in vivo; settings: Plinabulin 7.5 mg/kg i.p. twice a week for 10 weeks plus TMZ plus radiation 10gy x1; p=0.0149
Experimental: Mice with PDGF-induced gliomas that expressed G12D mutant KRAS were prepared using the procedures according to Example 1 and used in this experiment. 4-6 week old nestin-tv-a/ink4a-arf−/− mice were anesthetized with Isoflurane and injected with Df-1 cells transfected RCAS-PDGF-B-HA, RCAS-KRAS. Mice were injected with one microliter of a 1:1 mixture of 2×10^5 RCAS-PDGF-B-HA/RCAS-KRAS using a stereotactic frame via a 26-gauge needle attached to a Hamilton syringe. Cells were injected into the right frontal cortex, coordinates bregma 1.75 mm, Lat −0.5 mm, and a depth of 2 mm.
The mice were entered into two study groups. One group was treated with the combination of temozolomide (TMZ), Radiation and Plinabulin: radiation was given at 10gy×1, TMZ and Plinabulin 7.5 mg/kg in Plinabulin diluent was administered intraperitoneally twice a week on Monday and Thursday for 10 weeks. The other group, the control group, was treated with the combination of TMZ and radiation: radiation was given at 10gy×1, TMZ was administered intraperitoneally twice a week on Monday and Thursday for 10 weeks. the mice were monitored for lethargy, hunched posture, appetite loss, outward signs of tumor growth, agitation, weight-loss and overall failure to thrive. […]

## CC(C)(C)c1[nH]cnc1/C=c1\[nH]c(=O)/c(=C/c2ccccc2)[nH]c1=O [Plinabulin, (3Z,6Z)-3-Benzylidene-6-{[5-(2-methyl-2-propanyl)-1H-imidazol-4-yl]methylene}-2,5-piperazinedione]
[1]
  survival rate vs control group (FIG. 3): significantly better survival rate
[2]
  survival rate vs control group that received TMZ plus radiation (FIG. 4): significantly better survival rate
